The text below walks through data of ChEMBL document CHEMBL1138716, “Carbonic anhydrase inhibitors. Inhibition of the prokariotic beta and gamma-class enzymes from Archaea with sulfonamides” (Bioorg Med Chem Lett, 2004).

For assay [1], the target named is T1, Carbonic anhydrase (Methanobacterium thermoautotrophicum, UniProt Q50565).
T1 sequence (Q50565 whole entry): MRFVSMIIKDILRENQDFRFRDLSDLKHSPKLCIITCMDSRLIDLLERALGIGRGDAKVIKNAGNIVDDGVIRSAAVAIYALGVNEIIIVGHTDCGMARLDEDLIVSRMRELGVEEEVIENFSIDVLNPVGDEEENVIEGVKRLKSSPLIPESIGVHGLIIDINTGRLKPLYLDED

In assay [2] the target is T2, Carbonic anhydrase (Methanosarcina thermophila, UniProt P40881).
T2 sequence (P40881 whole entry): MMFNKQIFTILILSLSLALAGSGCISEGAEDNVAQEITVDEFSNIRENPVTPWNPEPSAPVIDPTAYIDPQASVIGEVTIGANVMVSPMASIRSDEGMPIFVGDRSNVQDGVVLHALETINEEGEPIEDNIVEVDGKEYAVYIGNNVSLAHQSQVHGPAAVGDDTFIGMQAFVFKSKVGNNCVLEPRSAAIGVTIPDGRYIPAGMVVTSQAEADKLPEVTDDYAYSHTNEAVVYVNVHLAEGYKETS

For assay [3], the target named is T2, Carbonic anhydrase. This is another data set of the same source.

Take `NS(N)(=O)=O` [SULFAMIDE]: the Ki in assay [1] came to 440000 µM; in assay [2] it was 5960 nM.
Regarding `CC1(C)O[C@@H]2[C@@H](CO[C@@]3(COS(N)(=O)=O)OC(C)(C)O[C@@H]23)O1` [TOPIRAMATE], the Ki in assay [1] stood at 23.5 µM; in assay [2] it was 120 nM.
As for `NS(=O)(=O)O` [SULFAMATE], the results for the Ki in assay [1], in assay [2] and in assay [3] were 103000 µM, 3360 nM and 90 nM, respectively.
In turn, `CCOc1ccc2nc(S(N)(=O)=O)sc2c1` [ETHOXZOLAMIDE] returned a Ki in assay [2] of 740 nM.
Regarding `Cc1ccc(-c2cc(C(F)(F)F)nn2-c2ccc(S(N)(=O)=O)cc2)cc1` [CELECOXIB], the Ki in assay [1] turned out to be 38.5 µM; in assay [2], 1010 nM; in assay [3], 140 nM.
In the same order, the values of `Nc1ccc(S(=O)(=O)NCc2ccc(S(N)(=O)=O)cc2)cc1` are 52.4 µM, 6360 nM and 180 nM.
In the same order, the values of `NNc1ccc(S(N)(=O)=O)cc1` are 127 µM, 220 nM and 2200 nM.
Taken in the same sequence, the figures for `Nc1ccc(S(N)(=O)=O)cc1F` were 53.4 µM, 420 nM and 970 nM.
For `Nc1cccc(S(N)(=O)=O)c1`, the Ki in assay [1] was found to be 14.3 µM; in assay [2], 1240 nM; in assay [3] it was 170 nM.
In assay [1], `Nc1cc(C(F)(F)F)c(S(N)(=O)=O)cc1S(N)(=O)=O` [2,4-DISULFAMYLTRIFLUOROMETHYLANILINE] had an inhibition constant (Ki) of 50 µM.
Consider `NCCc1ccc(S(N)(=O)=O)cc1`, for which, in assay [1], the Ki was 25.7 µM.
On to `Nc1ccc(S(N)(=O)=O)cc1I`, for which the figures for the Ki in assay [1], in assay [2] and in assay [3] were 98 µM, 660 nM and 280 nM, respectively.
`Nc1ccc(S(N)(=O)=O)cc1Cl`: the results for the Ki in assay [2] and in assay [3] were 740 nM and 140 nM, respectively.
With `Nc1ccc(S(N)(=O)=O)cc1Br`, the Ki in assay [1] turned out to be 77 µM; in assay [2], 280 nM; in assay [3], 1720 nM.
In the same order, the values of `Nc1ccc(S(N)(=O)=O)cc1` [SULFANILAMIDE] are 57.8 µM, 3930 nM and 250 nM.
Regarding `NCc1ccc(S(N)(=O)=O)cc1` [MAFENIDE], the figures for the Ki in assay [1], in assay [2] and in assay [3] were 28.5 µM, 8500 nM and 350 nM, respectively.
